Laboratory results published in patent publication US7033802B1, “Penicillin binding protein gene and process for producing L-glutamic acid” (Ajinomoto Co., Inc., priority 1998, dated 2006).
Entries after “also recorded” stand apart in the source; their conditions may differ.

Assays:
[1] = test system: Brevibacterium lactofermentum ATCC 13869; assay: Glutamic acid production by coryneform bacterium induced by addition of mecillinam; assay type: cell-based; conditions: A medium, 30° C., added after 2 hours, further cultured 8 hours
Experimental: The Brevibacterium lactofermentum ATCC 13869 strain was inoculated to the aforementioned A medium, cultured at 30° C. for 2 hours with shaking, then added with 0.01 μM to 100 μM of mecillinam, and further cultured for 8 hours with shaking. Subsequently, glutamic acid concentration in the medium was measured by using Biotech Analyzer AS210 (produced by Asahi Chemical Industry Co., Ltd.) (Table 1).

PBP3 = assay: Inhibition by mecillinam of binding of 14C-penicillin G to PBPs in membrane fraction (SDS-PAGE, image analyzer); set-up: species or system Brevibacterium lactofermentum; conditions: mecillinam added at various concentrations before the penicillin binding reaction; membrane fraction of ATCC 13869
Experimental: PBP is considered to be a membrane protein. A membrane fraction of a coryneform bacterium was prepared as follows. A wild strain of coryneform bacteria, Brevibacterium lactofermentum ATCC 13869 strain, was inoculated to 20 ml of A medium (containing 10 g of polypeptone, 5 g of yeast extract, 5 g of NaCl and 5 g of glucose in 1 L of water), cultured at 30° C. with shaking, and harvested when the absorption at 660 nm reached about 1.0. The cells were washed in […] sodium phosphate buffer, pH 7.0. Then, the buffer was added with glass beads and sonicated to disrupt the cells. […] Protein concentration of this membrane fraction was determined by using a protein quantification kit (produced by PIERCE, Micro BCA Protein assay kit), and found to be 4 mg/ml.
A volume of 30 μl of the prepared membrane fraction was added with 3 μl of ^14C-penicillin G (produced by Amersham) and allowed to react at 30° C. for 10 minutes. […] A sample of this fraction was subjected to SDS-PAGE using gel containing 10% of polyacrylamide, and the gel was fixed, dried and analyzed with an image analyzer BAS2000 produced by Fuji Photo Film Co., Ltd. As a result, three bands were detected at 110 kDa, 100 kDa and 60 kDa, and designated as PBP1, PBP2 and PBP3, respectively. […]

CC1(C)S[C@@H]2[C@H](/N=C/N3CCCCCC3)C(=O)N2[C@H]1C(=O)O [mecillinam]
Concentration of L-glutamic acid ([1]; 0.1 μM added mecillinam): 0 mg/L
Concentration of L-glutamic acid ([1]; 1.0 μM added mecillinam): 0 mg/L
Concentration of L-glutamic acid ([1]; 10 μM added mecillinam): 0 mg/L
Concentration of L-glutamic acid ([1]; 100 μM added mecillinam): 575 mg/L
inhibition of binding of PBP with isotope (14C) labeled penicillin G / selectivity among PBP1, PBP2, PBP3 (PBP3): only PBP3 was inhibited; also recorded: selectively binds to PBP3
